In brackets after ≈: the same amount, converted by molar mass.
Legend:
Bacillus subtilis = experiment: Antibacterial activity against Bacillus subtilis PTCC 1023 by agar dilution method; type: functional
Staphylococcus aureus [1] = experiment: Antibacterial activity against Staphylococcus aureus ATCC 6538P by agar dilution method; type: functional
[2] = test system: Staphylococcus epidermidis; experiment: Antibacterial activity against Staphylococcus epidermidis ATCC 12228 by agar dilution method; type: functional
Staphylococcus aureus [3] = experiment: Antibacterial activity against quinolone-resistant Staphylococcus aureus after 16 to 20 hrs by NCCLS microdilution method; type: functional
Enterococcus faecium = experiment: Antibacterial activity against vancomycin and quinolone-resistant Enterococcus faecium after 16 to 20 hrs by NCCLS microdilution method; type: functional
Streptococcus pneumoniae = experiment: Antibacterial activity against quinolone-resistant Streptococcus pneumoniae after 16 to 20 hrs by NCCLS microdilution method; type: functional
Escherichia coli [4] = experiment: In vivo antibacterial activity against Escherichia coli NCTC 10419 infected in po dosed mouse administered at 1 and 4 hrs post infection; type: functional, organism-based
Escherichia coli [5] = experiment: microbe, parasite or virus in culture; details: NCTC 10419
Staphylococcus aureus [6] = experiment: Antibacterial activity against Staphylococcus aureus ATCC 6538p after 18 hrs by agar dilution method; type: functional
Staphylococcus aureus [7] = experiment: Antibacterial activity against methicillin-resistant Staphylococcus aureus isolate 1 after 18 hrs by agar dilution method; type: functional; details: isolate 1, 18 h
Staphylococcus aureus [8] = experiment: Antibacterial activity against methicillin-resistant Staphylococcus aureus isolate 2 after 18 hrs by agar dilution method; type: functional; details: isolate 2, 18 h
[9] = test system: Staphylococcus epidermidis; experiment: Antibacterial activity against Staphylococcus epidermidis ATCC 12228 after 18 hrs by agar dilution method; type: functional; details: ATCC 12228, 18 h
Bacillus spizizenii = experiment: Antibacterial activity against Bacillus subtilis ATCC 6633 after 18 hrs by agar dilution method; type: functional; details: ATCC 6633, 18 h
Escherichia coli [10] = experiment: Antibacterial activity against Escherichia coli ATCC 8739 after 18 hrs by agar dilution method; type: functional; details: ATCC 8739, 18 h
Klebsiella pneumoniae = experiment: Antibacterial activity against Klebsiella pneumoniae ATCC 10031 after 18 hrs by agar dilution method; type: functional; details: ATCC 10031, 18 h
Pseudomonas aeruginosa = experiment: Antibacterial activity against Pseudomonas aeruginosa ATCC 9027 after 18 hrs by agar dilution method; type: functional; details: ATCC 9027, 18 h

Row | Structure (SMILES) | MIC (Bacillus subtilis) [µg/mL] | MIC (Staphylococcus aureus [1]) [µg/mL] | MIC [2] [µg/mL] | MIC (Staphylococcus aureus [3]) [µg/mL] | MIC (Enterococcus faecium) [µg/mL] | MIC (Streptococcus pneumoniae) [µg/mL] | EC50 (Escherichia coli [4]) [mg/kg] | MIC (Escherichia coli [5]) [nM] | MIC (Staphylococcus aureus [6]) [µg/mL] | MIC (Staphylococcus aureus [7]) [µg/mL] | MIC (Staphylococcus aureus [8]) [µg/mL] | MIC [9] [µg/mL] | MIC (Bacillus spizizenii) [µg/mL] | MIC (Escherichia coli [10]) [µg/mL] | MIC (Klebsiella pneumoniae) [µg/mL] | MIC (Pseudomonas aeruginosa) [µg/mL]
1 | O=C(O)c1cn(C2CC2)c2cc(N3CCNCC3)c(F)cc2c1=O [CIPROFLOXACIN] | 0.015 to 0.5 (≈ 0.0453 to 1.51 µM) | 0.015 to 0.5 (≈ 0.0453 to 1.51 µM) | 0.015 to 0.5 (≈ 0.0453 to 1.51 µM) | ≥ 32 | ≥ 32 | ≥ 32 | 1.25 | 1.1 (≈ 0.364 ng/mL) |  |  |  |  |  |  |  | 
2 | O=C(CN1CCN(c2cc3c(cc2F)c(=O)c(C(=O)O)cn3C2CC2)CC1)c1cc2ccccc2oc1=O |  |  |  |  |  |  |  |  | 0.025 to 1.56 (≈ 0.0483 to 3.01 µM) | 0.025 to 1.56 (≈ 0.0483 to 3.01 µM) | 0.025 to 1.56 (≈ 0.0483 to 3.01 µM) | 0.025 to 1.56 (≈ 0.0483 to 3.01 µM) | 0.025 to 1.56 (≈ 0.0483 to 3.01 µM) | 0.025 to 1.56 (≈ 0.0483 to 3.01 µM) | 0.025 to 1.56 (≈ 0.0483 to 3.01 µM) | 0.025 to 1.56 (≈ 0.0483 to 3.01 µM)
